Data published in patent publication US8741930B2 (Bridge Pharma, Inc., priority 2008, dated 2014).
Like-named read-outs stand apart in the source and are kept apart here.

How the values were obtained:
histamine wheal response = assay: Antihistaminic activity in vivo: histamine-induced wheal after oral dosing; set-up: species or system rats
Procedure: Male rats (150-200 g) were starved overnight and twelve hours after dorsal depilation, the animals were orally pretreated with the test compound(s). Four dorsal test areas were marked with permanent ink, carefully avoiding the area closest to the spine. Exactly 60 min after the dosing of the test compound, two intradermal injections of histamine (50 microliter; 1.0 mg/ml of histamine di-HCl) were performed, one on each side on the back of the animal. Two intradermal injections of the vehicle for the histamine solution were also performed. Evans blue dye (20 mg/kg) was injected iv 1 minute prior to the intra-dermal injections of histamine and the histamine vehicle. Twenty minutes were allowed for the wheal response to fully develop, whereupon the animals were euthanized and the dorsal skin containing the intradermal wheals were deflected. The blue spotted areas were measured in square millimeters and the duplicate vehicle wheal responses were averaged. In vehicle-treated animals, the wheal area, on average, was increased by histamine by 98 mm^2. The inhibition was calculated in percent difference from this baseline value.

tear flow [1] = assay: Tear flow, phenol red thread (modified Schirmer's test) after ocular instillation; type: in vivo, mice; settings: for Effect on tear flow: topical administration to the eyes of laboratory animals; for Tear flow, length of red area of thread, Mean ± SEM: 0.07% solution, 0.05 mL twice daily, 45 min after 5th instillation, N=8
Procedure: All instillations were performed twice daily and consisted of 0.05 mL. A total of five instillations were administered. Tear measurements were performed 45 minutes after the first drug instillation on Day 3, by carefully placing the bent end of a Zone-Quick phenol red impregnated cotton thread (FCI Ophthalmics, Pembrooke, Mass.) at the intercanthus of the eye and holding it in place for 30 seconds. After removal, the length of the red area of the thread was measured in millimeters. During tear measurements, all animals were lightly anesthetized with isoflurane in order to reduce movement and stress.

Maximal solubility = type: physicochemical
Description: Ocular formulations of norketotifen to be used by individuals suffering from a dry eye syndrome may be hypotonic or isotonic. Thus, the acceptable osmolality may range from about 150 mOsm to about 350 mOsm.

[2] = target: muscarinic receptors (antimuscarinic activity); settings: Wolff et al. 2007; cited from earlier work
tear flow [3] = settings: U.S. Pat. No. 7,247,623; cited from earlier work

Structure (SMILES): O=C1Cc2ccccc2C(=C2CCNCC2)c2ccsc21 (racemic) [Norketotifen]
- inhibition at 1 mg/kg (histamine wheal response; Rattus norvegicus, 1 mg/kg oral, versus vehicle histamine effect): 6%
- inhibition at 10 mg/kg (histamine wheal response; Rattus norvegicus, 10 mg/kg oral, versus vehicle histamine effect): 83%
- Absorption after oral administration (histamine wheal response; rats, oral): well absorbed
- Statistical significance of effect in modified Schirmer's test (tear flow [1]; 45 minutes after the 5th treatment): statistically significant effects
- Effect on tear flow (tear flow [1]): increase tear flow

Structure (SMILES): CN1CCC(=C2c3ccccc3CC(=O)c3sccc32)CC1.O=C(O)/C=C/C(=O)O [KETOTIFEN HF, reference compound]
- Tear flow, length of red area of thread, Mean ± SEM (tear flow [1]): 4.25 ± 0.250 mm

Structure (SMILES): CN1CCC(=C2c3ccccc3CC(=O)c3sccc32)CC1 [Ketotifen, reference compound]
- Effect on tear flow (tear flow [1]): not to increase tear flow

Structure (SMILES): O=C(O)/C=C/C(=O)O.O=C1Cc2ccccc2C(=C2CCNCC2)c2ccsc21 [norketotifen hydrogen fumarate]
- Tear flow, length of red area of thread, Mean ± SEM (tear flow [1]): 4.62 ± 0.263 mm
- Maximal solubility (Maximal solubility; in saline): 4.5 mg/mL
- Maximal solubility (Maximal solubility; in water): 2.7 mg/mL

Structure (SMILES): CN(C)CC/C=C1/c2ccccc2COc2ccc(CC(=O)O)cc21 [olopatadine]
- IC50 [2]: 1.74 µM
- Effect on tear flow (tear flow [3]): reduce tear flow
